From ChEMBL document CHEMBL3885861, “Open TG-GATES”

Species: Rattus norvegicus
Experiment: Open TG-GATES - Regimen: Daily Repeat
Type: toxicity, organism-based, Sprague-Dawley
Design: regimen Daily Repeat, gender Male, age 6 weeks
Conditions: in vivo, po, 20 mg/kg, route gavage, dose level Low; for APTT / Bas / Eos / Fbg / Hb / Ht / Lym / MCH / MCHC / MCV / Mono / Neu / PT / Plat / RBC / Ret / WBC: tissue Blood; for KIDNEY_L / KIDNEY_R / KIDNEY_TOTAL: tissue Kidney; for LIVER: tissue Liver; for A/G / ALP / ALT / AST / BUN / CRE / Ca / Cl / DBIL / GLC / IP / K / LDH / Na / PL / RALB / TBIL / TC / TG / TP / gamma-GTP: tissue Plasma

Work on `Cn1c(=O)c2[nH]cnc2n(C)c1=O.O` [THEOPHYLLINE] yielded a TERMINAL_BW (72 h, time 3 day) of 242.7 g, an APTT (72 h, time 3 day) of 22.4 s and a Bas (72 h, time 3 day) of 0%. It also gave an Eos (72 h, time 3 day) of 1%, a Fbg (72 h, time 3 day) of 305.4 mg/dL and a Hb (72 h, time 3 day) of 13.4 g/dL. For the same compound, the Ht (72 h, time 3 day) was 39.6%, the Lym (72 h, time 3 day) was 76.6% and the MCH (72 h, time 3 day) was 21.2 pg. The MCHC (72 h, time 3 day) was 33.8%, the MCV (72 h, time 3 day) was 62.6 fL and the Mono (72 h, time 3 day) was 3.2%. For the same compound, the Neu (72 h, time 3 day) was 18%, the PT (72 h, time 3 day) was 15.5 s and the Plat (72 h, time 3 day) was 119.5 x10_4/uL. The RBC (72 h, time 3 day) was 632.4 x10_4/ul, the Ret (72 h, time 3 day) was 5.9% and the WBC (72 h, time 3 day) was 125.2 x10_2/uL. It also gave a KIDNEY_L (72 h, time 3 day) of 1.1 g, a KIDNEY_R (72 h, time 3 day) of 1.1 g and a KIDNEY_TOTAL (72 h, time 3 day) of 2.1 g. It also gave an LIVER (72 h, time 3 day) of 10.9 g, an A/G (72 h, time 3 day) of 1.3 and an ALP (72 h, time 3 day) of 1574.4 IU/L. The ALT (72 h, time 3 day) was 45.2 IU/L, the AST (72 h, time 3 day) was 71.8 IU/L and the BUN (72 h, time 3 day) was 15.4 mg/dL. It also gave a CRE (72 h, time 3 day) of 0.2 mg/dL, a Ca (72 h, time 3 day) of 10.6 mg/dL and a Cl (72 h, time 3 day) of 106.8 meq/L. For the same compound, the DBIL (72 h, time 3 day) was 0 mg/dL, the GLC (72 h, time 3 day) was 194.8 mg/dL and the IP (72 h, time 3 day) was 7.4 mg/dL. It also gave a K (72 h, time 3 day) of 4.4 meq/L, an LDH (72 h, time 3 day) of 167.2 IU/L and a Na (72 h, time 3 day) of 142.4 meq/L. It also gave a PL (72 h, time 3 day) of 132.6 mg/dL, an RALB (72 h, time 3 day) of 3 g/dL and a TBIL (72 h, time 3 day) of 0.004 mg/dL. It also gave a TC (72 h, time 3 day) of 70 mg/dL, a TG (72 h, time 3 day) of 97 mg/dL and a TP (72 h, time 3 day) of 5.5 g/dL. The gamma-GTP (72 h, time 3 day) was 1.6 IU/L, the TERMINAL_BW ([…], time 7 day) was 271.5 g and the TERMINAL_BW ([…], time 14 day) was 324.6 g. For the same compound, the TERMINAL_BW ([…], time 28 day) was 357.5 g, the APTT ([…], time 7 day) was 24 s and the Bas ([…], time 7 day) was 0%. For the same compound, the Eos ([…], time 7 day) was 1%, the Fbg ([…], time 7 day) was 312.6 mg/dL and the Hb ([…], time 7 day) was 14.2 g/dL. The Ht ([…], time 7 day) was 41.1%, the Lym ([…], time 7 day) was 80% and the MCH ([…], time 7 day) was 20.9 pg. For the same compound, the MCHC ([…], time 7 day) was 34.5%, the MCV ([…], time 7 day) was 60.5 fL and the Mono ([…], time 7 day) was 2.6%. The Neu ([…], time 7 day) was 14.4%, the PT ([…], time 7 day) was 15.4 s and the Plat ([…], time 7 day) was 111.8 x10_4/uL. It also gave an RBC ([…], time 7 day) of 679 x10_4/ul, a Ret ([…], time 7 day) of 5.3% and a WBC ([…], time 7 day) of 121.9 x10_2/uL. The APTT ([…], time 14 day) was 24.1 s, the Bas ([…], time 14 day) was 0% and the Eos ([…], time 14 day) was 1%. The Fbg ([…], time 14 day) was 333.4 mg/dL, the Hb ([…], time 14 day) was 14.4 g/dL and the Ht ([…], time 14 day) was 42.7%. The Lym ([…], time 14 day) was 80%, the MCH ([…], time 14 day) was 19.9 pg and the MCHC ([…], time 14 day) was 33.7%. For the same compound, the MCV ([…], time 14 day) was 59 fL, the Mono ([…], time 14 day) was 2.4% and the Neu ([…], time 14 day) was 14.6%. For the same compound, the PT ([…], time 14 day) was 15.3 s, the Plat ([…], time 14 day) was 110.9 x10_4/uL and the RBC ([…], time 14 day) was 724.8 x10_4/ul. The Ret ([…], time 14 day) was 4.9%, the WBC ([…], time 14 day) was 110 x10_2/uL and the APTT ([…], time 28 day) was 26.7 s. The Bas ([…], time 28 day) was 0%, the Eos ([…], time 28 day) was 1% and the Fbg ([…], time 28 day) was 333.2 mg/dL. It also gave a Hb ([…], time 28 day) of 15.4 g/dL, a Ht ([…], time 28 day) of 44.6% and a Lym ([…], time 28 day) of 83.6%. The MCH ([…], time 28 day) was 18.7 pg, the MCHC ([…], time 28 day) was 34.4% and the MCV ([…], time 28 day) was 54.4 fL. It also gave a Mono ([…], time 28 day) of 1.6%, a Neu ([…], time 28 day) of 12.8% and a PT ([…], time 28 day) of 15.8 s. For the same compound, the Plat ([…], time 28 day) was 108.7 x10_4/uL, the RBC ([…], time 28 day) was 820.8 x10_4/ul and the Ret ([…], time 28 day) was 2.5%. It also gave a WBC ([…], time 28 day) of 112.5 x10_2/uL, a KIDNEY_L ([…], time 7 day) of 1.1 g and a KIDNEY_R ([…], time 7 day) of 1.2 g. For the same compound, the KIDNEY_TOTAL ([…], time 7 day) was 2.3 g, the KIDNEY_L ([…], time 14 day) was 1.3 g and the KIDNEY_R ([…], time 14 day) was 1.3 g. The KIDNEY_TOTAL ([…], time 14 day) was 2.6 g, the KIDNEY_L ([…], time 28 day) was 1.3 g and the KIDNEY_R ([…], time 28 day) was 1.4 g. It also gave a KIDNEY_TOTAL ([…], time 28 day) of 2.8 g, an LIVER ([…], time 7 day) of 12.4 g and an LIVER ([…], time 14 day) of 14.3 g. The LIVER ([…], time 28 day) was 13.8 g, the A/G ([…], time 7 day) was 1.1 and the ALP ([…], time 7 day) was 1498.6 IU/L. For the same compound, the ALT ([…], time 7 day) was 40 IU/L, the AST ([…], time 7 day) was 68.2 IU/L and the BUN ([…], time 7 day) was 19.2 mg/dL. The CRE ([…], time 7 day) was 0.2 mg/dL, the Ca ([…], time 7 day) was 10.3 mg/dL and the Cl ([…], time 7 day) was 106.2 meq/L. The DBIL ([…], time 7 day) was 0 mg/dL, the GLC ([…], time 7 day) was 185.4 mg/dL and the IP ([…], time 7 day) was 7.3 mg/dL. It also gave a K ([…], time 7 day) of 4.2 meq/L, an LDH ([…], time 7 day) of 184.6 IU/L and a Na ([…], time 7 day) of 142.2 meq/L. The PL ([…], time 7 day) was 150 mg/dL, the RALB ([…], time 7 day) was 3 g/dL and the TBIL ([…], time 7 day) was 0.004 mg/dL. The TC ([…], time 7 day) was 77.2 mg/dL, the TG ([…], time 7 day) was 106.2 mg/dL and the TP ([…], time 7 day) was 5.7 g/dL. The gamma-GTP ([…], time 7 day) was 1.8 IU/L, the A/G ([…], time 14 day) was 1.2 and the ALP ([…], time 14 day) was 1256.2 IU/L. The ALT ([…], time 14 day) was 37 IU/L, the AST ([…], time 14 day) was 64 IU/L and the BUN ([…], time 14 day) was 17.8 mg/dL. For the same compound, the CRE ([…], time 14 day) was 0.2 mg/dL, the Ca ([…], time 14 day) was 10.3 mg/dL and the Cl ([…], time 14 day) was 106.4 meq/L. It also gave a DBIL ([…], time 14 day) of 0 mg/dL, a GLC ([…], time 14 day) of 177.6 mg/dL and an IP ([…], time 14 day) of 7.4 mg/dL. It also gave a K ([…], time 14 day) of 4.2 meq/L, an LDH ([…], time 14 day) of 140.8 IU/L and a Na ([…], time 14 day) of 141.8 meq/L. It also gave a PL ([…], time 14 day) of 152.2 mg/dL, an RALB ([…], time 14 day) of 3.1 g/dL and a TBIL ([…], time 14 day) of 0.008 mg/dL. The TC ([…], time 14 day) was 82.4 mg/dL, the TG ([…], time 14 day) was 92.4 mg/dL and the TP ([…], time 14 day) was 5.8 g/dL. For the same compound, the gamma-GTP ([…], time 14 day) was 2.6 IU/L, the A/G ([…], time 28 day) was 1.1 and the ALP ([…], time 28 day) was 1031.2 IU/L. For the same compound, the ALT ([…], time 28 day) was 39.8 IU/L, the AST ([…], time 28 day) was 68.2 IU/L and the BUN ([…], time 28 day) was 16.6 mg/dL. For the same compound, the CRE ([…], time 28 day) was 0.2 mg/dL, the Ca ([…], time 28 day) was 10.1 mg/dL and the Cl ([…], time 28 day) was 107 meq/L. For the same compound, the DBIL ([…], time 28 day) was 0 mg/dL, the GLC ([…], time 28 day) was 192.2 mg/dL and the IP ([…], time 28 day) was 6.2 mg/dL. It also gave a K ([…], time 28 day) of 3.8 meq/L, an LDH ([…], time 28 day) of 134.6 IU/L and a Na ([…], time 28 day) of 143 meq/L. It also gave a PL ([…], time 28 day) of 137.6 mg/dL, an RALB ([…], time 28 day) of 3.2 g/dL and a TBIL ([…], time 28 day) of 0.016 mg/dL. The TC ([…], time 28 day) was 73.6 mg/dL, the TG ([…], time 28 day) was 97.6 mg/dL and the TP ([…], time 28 day) was 6.1 g/dL. For the same compound, the gamma-GTP ([…], time 28 day) was 2 IU/L.
